Data from patent US6159733A, “Method for photoinactivating malignant cells” (priority 1996, dated 2000).

Tests used:
[1] = tested on: ABE-8.1/2 cells; assay: Photoinactivation of cell line, colony forming assay; format: cell-based, murine; settings: for fluence for photoinactivation to below the detection levels: 15 nM
Description: (§1) Cell lines and culture conditions. WEHI-3 (murine myelocytic leukemia), L1210 (murine lymphocytic leukemia) and P815 (murine mastocytoma) cells were grown in RPMI 1640 (GibcoBRL, Grand Island, N.Y.) supplemented with 10% FBS. BC3A (murine leukemia) cells were grown in RPMI 1640 supplemented with 10 μM β-mercaptoethanol and 10% FBS; ABE-8.1/2 (murine pre-B lymphoma) cells were grown in DMEM (GibcoBRL)--10 μM β-mercaptoethanol--10% FBS. All cell lines were obtained from the American Type Culture Collection (Rockville, Md.) and were cultured at 37° C. in a humidified 5% CO2 -incubator. Prior to incubation with Pc 4, the cell lines were centrifuged and resuspended in phosphate buffered saline (PBS)--10% FBS, pH 7.4.
(§2) Photosensitization. Aliquots of a 1.87 mM Pc 4 (kindly provided by Dr. M. E. Kenney) stock solution in dimethyl sulfoxide were kept at -80° C. in autoclaved brown glass vials. Immediately prior to the photosensitization, Pc4 was thawed and diluted in dimethyl formamide to yield a 10 μM working solution. […] Pc 4 was used at 15 nM throughout the experiments.
(§3) BM and cell line samples, were incubated with 15 nM Pc 4 for two hours at 37° C. at cell concentrations of 1.5×10^7 cells/mL. Aliquots of 1.5 mL were transferred to 24-well plates; separate plates were used for each sample.
(§4) In a second set of experiments, the cells were incubated with 15 nM Pc 4 at cell concentrations of 1.5×10^6 cells/mL. Prior to photoirradiation, the samples were centrifuged and the supernatants were aspirated and set aside. The cell concentrations were adjusted to 1.5×10^7 cells/mL by adding back an appropriate volume of the Pc 4 containing aspirates.
(§5) Photoinactivation. The light source used was a filtered xenon short arc lamp (Versa-Light, Model UV-R6G, Medic Lightech, Ltd., Haifa, Israel). It was used to deliver red light (λ 600-700 nm) to the sensitized cells. After a 20 minute warm up period of the instrument, the distance from the light source to the bottom of the 24-well plate was adjusted to obtain a fluence rate of 26.6 mW/cm^2, as measured with a radiometer (Model IL 1350, International Light, Newburyport, Mass.). Samples were placed under the light source and were stirred during the irradiations. Before and after the irradiations, samples were kept in the dark.
(§6) Cell line samples were plated (in triplicate) in a semi-solid medium which consisted of DMEM--20% vol/vol serum (2/3 horse serum, 1/3 FBS)--3 mM glutamine--60 μM β-mercaptoethanol--0.3% wt/vol agar. The samples were incubated at 37° C. in a humidified 5% CO2 -incubator, and colonies consisting of more than 50 cells were counted after nine days.
(§7) Statistics. All assays were performed in triplicate unless mentioned otherwise. Data are expressed as mean values±standard error of the mean (SEM). Survival data are presented as surviving fractions relative to the surviving fractions of the untreated controls. The significance of the differences between experimental values was assessed by means of the Student's t-test.

[2] = tested on: BC3A cells; assay: as above; format: cell-based, murine; settings: for fluence for photoinactivation to below the detection levels: 15 nM
Description: as §1, §2, §3, §4, §5, §6, §7

[3] = tested on: L1210 cells; assay: as above; format: cell-based, murine; settings: for fluence for photoinactivation to below the detection levels: 15 nM
Description: as §1, §2, §3, §4, §5, §6, §7

[4] = tested on: P815 cells; assay: as above; format: cell-based, murine
Description: as §1, §2, §3, §4, §5, §6, §7

[5] = tested on: WEHI-3 cells; assay: as above; format: cell-based, murine
Description: as §1, §2, §3, §4, §5, §6, §7

[6] = tested on: cell lines and bone marrow samples; assay: Uptake of Pc 4; format: cell-based, murine
Description: as §2

[7] = tested on: multidrug resistance (mdr) pump; assay: Uptake of Pc 4 by BM in presence of verapamil
Description: Uptake of Pc 4. Following a two hour incubation at 37° C. with 15 nM Pc 4, cell line and BM samples were analyzed for Pc 4 uptake by flow cytometry. BM samples were first incubated with anti-c-kit^PE (Pharmingen) and anti-Sca-1^FITC (Pharmingen), to allow analysis of the Pc 4 uptake in the committed progenitor fraction (c-kit^+,Sca-1^-) and the pluripotent stem cell fraction (c-kit^+,Sca-1^+) (Li, C. L. and G. R. Johnson Blood 85:1472 (1995)). Following a 20 minute incubation on ice, and two subsequent washes, the samples were incubated with 15 nM Pc 4. The relative Pc 4 uptake was calculated by subtracting the mean fluorescence signals of the untreated control samples from the mean Pc 4 fluorescence signals.

[8] = tested on: viruses; settings: blood products; cited from earlier work
[9] = tested on: parasites; settings: blood products; cited from earlier work

CN(C)CCC[Si](C)(C)O[Si]1(O)n2c3c4ccccc4c2N=C2N=C(N=c4c5ccccc5c(n41)=NC1=NC(=N3)c3ccccc31)c1ccccc12 (stereo not shown) [Pc 4, hydroxysiloxy-dimethylpropyl-N-dimethyl silicon phthalocyanine]
fluence for photoinactivation to below the detection levels ([1]; 1.5×10^6 cells/mL): 3 J/cm^2 | fluence for photoinactivation to below the detection levels ([1]; 1.5×10^7 cells/mL): 12 J/cm^2 | selectivity of photoinactivation towards the cell line ([1]; 1.5×10^6 cells/mL): approximately 5 log10 | selective photoinactivation ([1]; 1.5×10^7 cells/mL, 18 J/cm^2): > 6 log10 | fluence for photoinactivation to below the detection levels ([2]; 1.5×10^6 cells/mL): 6 J/cm^2 | fluence for photoinactivation to below the detection levels ([2]; 1.5×10^7 cells/mL): 12 J/cm^2 | selectivity of photoinactivation towards the cell line ([2]; 1.5×10^6 cells/mL): approximately 5 log10 | selective photoinactivation ([2]; 1.5×10^7 cells/mL, 18 J/cm^2): > 6 log10 | fluence for photoinactivation to below the detection levels ([3]; 1.5×10^6 cells/mL): 6 J/cm^2 | fluence for photoinactivation to below the detection levels ([3]; 1.5×10^7 cells/mL): 18 J/cm^2 | selectivity of photoinactivation towards the cell line ([3]; 1.5×10^6 cells/mL): < 1 log10 | selective photoinactivation ([3]; 1.5×10^7 cells/mL, 18 J/cm^2): > 6 log10 | fluence for photoinactivation to below the detection levels ([4]; 15 nM, 1.5×10^6 cells/mL): 6 J/cm^2 | selectivity of photoinactivation towards the cell line ([4]; 1.5×10^6 cells/mL): ~3 logs | selective photoinactivation ([4]; 1.5×10^7 cells/mL, 18 J/cm^2): > 3 log10 | viability at 0.015 µM ([4]; Mus musculus, P815, light or radiation study, read-out: surviving fraction): 0.053 ± 2.6e-06% | fluence for photoinactivation to below the detection levels ([5]; 15 nM, 1.5×10^6 cells/mL): 12 J/cm^2 | selectivity of photoinactivation towards the cell line ([5]; 1.5×10^6 cells/mL): ~4 log10 | selective photoinactivation ([5]; 1.5×10^7 cells/mL, 18 J/cm^2): 5 log10 | viability at 0.015 µM ([5]; Mus musculus, WEHI-3, light or radiation study, read-out: surviving fraction): 0.00038% | dependence of Pc 4 uptake on cell concentration ([6]; all cell types, 15 nM): inversely correlated with the cell concentration | cellular Pc 4 concentration in BM fractions relative to cell lines ([6]; committed progenitors and pluripotent stem cells, corrected for cell volume): almost twice | time to complete uptake ([6]; murine BM samples): complete after two hours | effect of verapamil on uptake of Pc 4 ([7]; BM samples, verapamil during incubation): did not increase the uptake | comparison with BPD-DA and benzochlorin ([7]; application with samples containing mdr^+ leukemic cells): compared favorable to BPD-DA | substrate of the multidrug resistance pump ([7]; murine pluripotent stem cells): not a substrate | photoinactivation of viruses [8]: effectively photoinactivate | photoinactivation of parasites [9]: effectively photoinactivate
